Reference: patent US10421756B2, “Heterobicyclic N-aminophenyl-amides as inhibitors of histone deacetylase” (Rodin Therapeutics, Inc., priority 2015, dated 2019)

Experiments:
Assay type in all cases: binding
HDAC1 = HDAC1 (Homo sapiens (Human), UniProt Q13547); assay: Reporter displacement assay (HDAC1); conditions: for Kd: reporter probe displacement, Cheng Prusoff
Experimental: [The procedure below names another target; the source lists this target under the same test.] (§1) HDAC2 containing a C-terminal HIS-Tag (Proteros) and fluorescently-labeled anti-HIS-antibody are diluted in one vial in assay buffer 50 mM Tris, pH 8.0, 1 mM DTT, 150 mM NaCl, and 0.01% Tween20. Components are pre-incubated for 30 min, then a small volume of reporter probe (Proteros) is added from a highly concentrated stock and incubation is continued for another 30 min.
(§2) Ten μl/well of pre-formed complex are transferred into 384 well assay plates (Corning). Compounds to be profiled are serially diluted from […] in DMSO and 60 nl are added to assay plates by pintool transfer (CybiWell, Cybio).
For Kd determination, percent probe displacement values are calculated for each compound concentration and plotted against the compound concentration. […] Since the reporter probe is used at a concentration reflecting its own Kd value, compound Kd values can be calculated according to the Cheng Prusoff equation.

HDAC2 [1] = biological target: T1, HDAC2 (Homo sapiens (Human), UniProt Q92769); assay: Reporter displacement assay (HDAC2); conditions: reporter probe displacement, Cheng Prusoff
T1 sequence (Q92769 whole entry): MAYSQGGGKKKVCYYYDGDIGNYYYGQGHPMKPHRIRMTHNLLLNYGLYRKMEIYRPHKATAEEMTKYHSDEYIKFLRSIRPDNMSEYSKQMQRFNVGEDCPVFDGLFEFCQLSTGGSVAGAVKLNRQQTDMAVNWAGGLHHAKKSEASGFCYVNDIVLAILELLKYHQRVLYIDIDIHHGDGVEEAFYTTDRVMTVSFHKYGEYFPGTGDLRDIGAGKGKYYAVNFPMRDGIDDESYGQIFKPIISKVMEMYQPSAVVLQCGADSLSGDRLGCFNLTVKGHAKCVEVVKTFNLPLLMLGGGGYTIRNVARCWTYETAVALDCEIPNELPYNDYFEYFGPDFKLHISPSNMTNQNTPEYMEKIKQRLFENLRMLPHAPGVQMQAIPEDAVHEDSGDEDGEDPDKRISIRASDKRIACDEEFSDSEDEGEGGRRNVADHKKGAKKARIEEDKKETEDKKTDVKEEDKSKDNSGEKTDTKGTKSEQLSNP
Experimental: as §1, with “min. Final concentrations after adding the reporter probe amount to 20 nM HDAC2, 4 nM antibody, and 180 nM probe.” for “min.”
as §2, with “Cybio). Fluorescence intensity signal is read after 4 h in a Pherastar FS (BMG Labtech) at 337/665 nm.” for “Cybio).”
For Kd determination, percent probe displacement values are calculated for each compound concentration and plotted against the compound concentration. IC50-like values (corresponding to 50% probe displacement) are calculated using standard fitting algorithms. Since the reporter probe is used at a concentration reflecting its own Kd value, compound Kd values can be calculated according to the Cheng Prusoff equation.
In the table, “A” indicates a Kd value of less than 0.1 μM; “B” a Kd value of between 0.1 μM and 0.5 μM; “C” a Kd value of greater than 0.5 μM and less than or equal to 5.0 μM; and “D” a Kd value of greater than 5.0 μM.

HDAC2 [2] = biological target: T1, HDAC2; assay: Reporter displacement assay (HDAC2)

Sequence of HDAC1 (Q13547 whole entry): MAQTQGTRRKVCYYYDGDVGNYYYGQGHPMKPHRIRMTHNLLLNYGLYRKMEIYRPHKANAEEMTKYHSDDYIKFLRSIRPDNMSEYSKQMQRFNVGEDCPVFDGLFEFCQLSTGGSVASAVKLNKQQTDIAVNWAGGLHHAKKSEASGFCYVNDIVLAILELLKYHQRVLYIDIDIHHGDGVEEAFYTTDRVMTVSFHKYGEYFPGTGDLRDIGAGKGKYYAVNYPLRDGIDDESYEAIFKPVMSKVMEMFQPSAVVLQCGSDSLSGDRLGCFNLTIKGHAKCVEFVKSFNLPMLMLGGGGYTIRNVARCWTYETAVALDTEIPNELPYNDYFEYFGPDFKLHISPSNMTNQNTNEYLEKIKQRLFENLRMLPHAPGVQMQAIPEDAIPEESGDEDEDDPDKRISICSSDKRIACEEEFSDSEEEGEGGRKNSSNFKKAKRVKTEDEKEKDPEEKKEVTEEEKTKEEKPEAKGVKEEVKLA

Row | Structure (SMILES) | residence time (HDAC1) | Kd (HDAC1) | Kd (HDAC2 [1]) | residence time (HDAC2 [2])
1 | Cn1cc(-c2ccc(N)c(NC(=O)N3Cc4ccncc4C3)c2)cn1 [Compound 145] | 876 min | 100 to 500 nM | 100 to 500 nM | 1250 min
2 | Nc1ccc(-c2ccccn2)cc1NC(=O)N1Cc2ccncc2C1 [Compound 146] | 540 min | 100 to 500 nM | 500 to 5000 nM | 1280 min
3 | Nc1ccc(-c2ccc(F)cc2)cc1NC(=O)N1CC2(CCOCC2)C1 [Compound 148] | 233 min | 500 to 5000 nM | 500 to 5000 nM | 809 min
4 | N#Cc1ccc(-c2ccc(N)c(NC(=O)N3Cc4ccncc4C3)c2)cc1 [Compound 149] | 124 min | 100 to 500 nM | 100 to 500 nM | 573 min
5 | Nc1ccc(-c2ccc(F)cc2)cc1NC(=O)c1cn2c(n1)CCCC2 [Compound 150] | 1080 min | 100 to 500 nM | 500 to 5000 nM | 1010 min
6 | Nc1ccc(-c2ccc(F)cc2)cc1NC(=O)N1CC2(CCCCO2)C1 [Compound 153] | 457 min | 100 to 500 nM | 500 to 5000 nM | 1290 min
7 | COC(=O)N1CC2CN(C(=O)Nc3cc(-c4ccc(F)cc4)ccc3N)CC2C1 (stereo not drawn) [Compound 154] | 1350 min | 100 to 500 nM | 100 to 500 nM | 1540 min
8 | CCOC(=O)N1CC2CN(C(=O)Nc3cc(-c4ccc(F)cc4)ccc3N)CC2C1 (stereo not drawn) [Compound 155] | 1630 min | 100 to 500 nM | 500 to 5000 nM | 1720 min
9 | CC(C)CC(=O)N1CC2CN(C(=O)Nc3cc(-c4ccc(F)cc4)ccc3N)CC2C1 (stereo not drawn) [Compound 160] | 848 min | 100 to 500 nM | 100 to 500 nM | 1730 min
10 | Nc1ccc(-c2ccc(F)cc2)cc1NC(=O)N1CCC2(CC1)CCN(C1COC1)C2 [Compound 164] | 1430 min | 100 to 500 nM | 100 to 500 nM | 2210 min
11 | Nc1ccc(-c2ccncc2)cc1NC(=O)N1CCC2(CC1)CCN(C1COC1)C2 [Compound 165] | 259 min | 500 to 5000 nM | 100 to 500 nM | 1720 min
12 | CC(C)(C)OC(=O)N1CCC2(CC1)CN(C(=O)Nc1cc(-c3ccc(F)cc3)ccc1N)C2 [Compound 166] | 84 min | 500 to 5000 nM | 500 to 5000 nM | 521 min
13 | Nc1ccc(-c2ccc(C(F)(F)F)cn2)cc1NC(=O)N1Cc2ccncc2C1 [Compound 167] | 140 min | 500 to 5000 nM | 500 to 5000 nM | 864 min
14 | Nc1ccc(-c2ccc(F)cc2)cc1NC(=O)N1CC2(CCNCC2)C1 [Compound 169] | 120 min | 500 to 5000 nM | 500 to 5000 nM | 716 min
15 | Nc1ccc(-c2ccc(F)cc2)cc1NC(=O)N1CC2CCNCC2C1 (stereo not drawn) [Compound 170] | 342 min | 500 to 5000 nM | 500 to 5000 nM | 2160 min
16 | CC(C)(C)OC(=O)N1CCC2CN(C(=O)Nc3cc(-c4ccc(F)cc4)ccc3N)CC2C1 (stereo not drawn) [Compound 171] | 765 min | 100 to 500 nM | 100 to 500 nM | 1610 min
17 | Nc1ccc(-c2ccc(F)cc2)cc1NC(=O)N1CCC2(CCOCC2)C1 [Compound 172] | 299 min | 100 to 500 nM | 100 to 500 nM | 987 min

Other lines, results leading:

Row | residence time (HDAC1) | Kd (HDAC1) | Kd (HDAC2 [1]) | residence time (HDAC2 [2]) | Structure (SMILES)
18 | 1340 min | < 100 nM | 100 to 500 nM | 1620 min | Nc1ccc(-c2ccc(F)cc2)cc1NC(=O)c1nc2c(s1)CNCC2 [Compound 147]
19 | 1130 min | < 100 nM | < 100 nM | 6280 min | Nc1ccc(-c2ccoc2)cc1NC(=O)N1Cc2ccncc2C1 [Compound 151]
20 | 1360 min | < 100 nM | < 100 nM | 2330 min | CNC(=O)N1CCc2nc(C(=O)Nc3cc(-c4ccc(F)cc4)ccc3N)sc2C1 [Compound 152]
21 | 1200 min | < 100 nM | 100 to 500 nM | 1800 min | CC(C)OC(=O)N1CC2CN(C(=O)Nc3cc(-c4ccc(F)cc4)ccc3N)CC2C1 (stereo not drawn) [Compound 156]
22 | 838 min | < 100 nM | 100 to 500 nM | 1360 min | CC(C)COC(=O)N1CC2CN(C(=O)Nc3cc(-c4ccc(F)cc4)ccc3N)CC2C1 (stereo not drawn) [Compound 157]
23 | 1220 min | < 100 nM | 100 to 500 nM | 2140 min | Nc1ccc(-c2ccc(F)cc2)cc1NC(=O)N1CC2CN(C(=O)OC3CC3)CC2C1 (stereo not drawn) [Compound 158]
24 | 1060 min | < 100 nM | 100 to 500 nM | 2640 min | Nc1ccc(-c2ccc(F)cc2)cc1NC(=O)N1CC2CN(C(=O)OC3CCC3)CC2C1 (stereo not drawn) [Compound 159]
25 | 1170 min | < 100 nM | 100 to 500 nM | 2640 min | CC(C)(C)OC(=O)N1CCC2(CCN(C(=O)Nc3cc(-c4ccc(F)cc4)ccc3N)CC2)C1 [Compound 161]
26 | 946 min | < 100 nM | < 100 nM | 1340 min | Nc1ccc(-c2ccc(OC(F)F)cc2)cc1NC(=O)N1Cc2ccncc2C1 [Compound 162]
27 | 1380 min | < 100 nM | < 100 nM | 5570 min | Nc1ccc(-c2ccco2)cc1NC(=O)N1Cc2ccncc2C1 [Compound 168]
28 | 1210 min | < 100 nM | 100 to 500 nM | 1250 min | Nc1ccc(-c2ccc(F)cc2)cc1NC(=O)N1CCC2(CCOC2)CC1 [Compound 173]
29 | 1350 min | < 100 nM | < 100 nM | 1940 min | Nc1ccc(-c2ccncc2)cc1NC(=O)c1nc2c(s1)CCNC2 [Compound 174]
30 | 1170 min | < 100 nM | < 100 nM | 2710 min | Nc1ccc(-c2ccc(F)cc2)cc1NC(=O)c1nc2c(s1)CCNC2 [Compound 175]
